Test results: paper PMC7393338 (Acta Pharmacologica Sinica, 2020)

What was measured:
SARS-CoV-2 PLpro = SARS-CoV-2 PLpro (Severe acute respiratory syndrome coronavirus 2, UniProt P0DTD1); assay: biochemical; conditions: read-out: PLpro Inhibition (%)
[1] = intratracheal administration versus other routes, rats

For O=c1cc(-c2ccccc2)oc2cc(O)c(O)c(O)c12 [Baicalein], the inhibition at 50 µM (SARS-CoV-2 PLpro) was under 50% and the “target tissue (lung) distribution” value [1] was “significantly increase their target tissue distribution”.
